Test results taken from patent US8637312B2, “Mammalian culture media with polyamine and iron” (Cellca GmbH, priority 2008, dated 2014).

Legend:
[1] = oligopeptide-free medium; WO 2007/077217; cited from earlier work
rat hepatoma cells = conditions: 100 μM in culture medium; Itoh et al. 1994; cited from earlier work
CHO DG44 host cell line [2] = experiment: High cell density fed-batch culture of antibody producing CHO clone, cell growth; assay type: cell-based, Chinese hamster; conditions: for effect of spermine and iron together on cell growth: Example 1, FIG. 1, both at high concentration, feed media polyamine and iron free; for requirement for optimal cell growth: Example 6, FIG. 6, spermine with iron (III) citrate, iron (III) citrate supplemented at day 6 to 400 mg/l
Description: (§1) For all experiments a CHO DG44 host cell line (Urlaub and Chasin, Proc. Natl. Acad. Sci. USA, 1980, 77: 4216) was used. This host cell line was transfected with a vector carrying the gene of an IgG antibody. Transfectants were amplified using MTX in culture medium. An antibody producing clone was isolated and this clone was then used for all experiments.
(§2) Stock culture cells were kept in a shake flask or in a spinner flask. The stock culture was split into fresh culture medium every two or three days. That means, a small amount of cell culture was used as inoculum and transferred into a new flask and supplemented with fresh culture medium. Cells were cultured at 37° C. in CO2 atmosphere in an incubator. In this way cells were cultured in several passages. One passage is defined as a culture duration of 2-4 days. At different time points inoculum cells were taken from the stock culture and experiments were performed in various scales, for examples in 6-well plates, shake flasks, T-flasks, spinner flasks and bioreactors.
A basal medium as follows (in the following also termed proprietary culture medium) was used for cultivation of cells in all steps, e.g. in the stock culture, in the culture expansion step and in the production step. The basal medium contains all necessary substances for cell growth, cell viability and cellular productivity. The basal medium contains glucose at 1.0-6.0 g/l, NaCl 2.8-6.2 g/l, KCl 273-945 mg/l, CaCl2 48-290 mg/l, MgCl2 42-330 mg/l, NaH2PO4 56-1130 mg/l, Arginine 56-930 mg/l, Asparagine 44-900 mg/l, Aspartic acid 26-445 mg/l, Cysteine 35-270 mg/l, Glutamic acid 44-900 mg/, Glutamine 44-900 mg/l, Glycine 18-180 mg/l, Histidine 42-670 mg/l, Isoleucine 54-877 mg/l, Leucine 59-1250 mg/l, Lysine 73-1120 mg/l, Methionine 9-454 mg/l, Phenylalanine 35-677 mg/l, Proline 17-828 mg/l, Serine 26-1339 mg/l, Threonine 24-989 mg/l, Tryptophane 9-441 mg/l, Tyrosine 55-565 mg/l, Valine 52-787 mg/l, NaHCO3 2,4 g/l. The basal medium further comprises fatty acids and nucleotides. In all batch and fed-batch experiments the same proprietary culture medium and proprietary feed medium were used, unless otherwise stated. The feed medium used in fed-batch experiments (in the following also termed “proprietary feed medium”) has all necessary substances for cell growth, cell viability and cellular productivity, in particular salts, trace elements, carbohydrates, amino acids, fatty acids, pH regulator, nucleotides. Even though here a rich feed medium is used containing above mentioned substances, feed media must not comprise all of these components. Feed media consisting of one or more of above mentioned substances are suitable also. Both basal medium and feed medium are serum free, protein free, peptone free and peptide free. However, supplementation of media with one or more of above mentioned additives is possible. Thus, both media are chemically defined, consisting of only single, fully defined chemicals.
Experiments were performed either in batch or in fed-batch modus. If an experiment was designed for fed-batch modus, it was started by inoculating the flask with stock culture cells in the production medium (culture medium). Culture flasks were inoculated with an inoculation cell density of 2 to 4×10^5 viable cells per millilitre. Cells were cultured for 1 to 4 days. The culture was supplemented thereafter with a feed medium for first time. Feeding was done batch wise every 1 to 3 days. Feeding the culture with feed medium was performed batch wise (bolus addition). Feeding of culture can also be done continuously, especially in bioreactors. In fed-batch experiments two different feed media were used. However, it is possible to use one or more than two different feed media. The culture was incubated as long as the cell viability was greater than 50%. Thus, culture duration was approximately 10 to 18 days. Every day samples were taken from cultures and analytical processes were done, such as cell count and metabolite measurements. […]

CHO DG44 host cell line [3] = experiment: Batch culture of antibody producing CHO clone, cell growth; assay type: cell-based, Chinese hamster; conditions: for effect of spermine and iron together on cell concentration: Example 5, FIG. 5, spermine with iron (III) nitrate nonahydrate, both at high concentration
Description: as §1, §2
A basal medium as follows (in the following also termed proprietary culture medium) was used for cultivation of cells in all steps, e.g. in the stock culture, in the culture expansion step and in the production step. The basal medium contains all necessary substances for cell growth, cell viability and cellular productivity. The basal medium contains glucose at 1.0-6.0 g/l, NaCl 2.8-6.2 g/l, KCl 273-945 mg/l, CaCl2 48-290 mg/l, MgCl2 42-330 mg/l, NaH2PO4 56-1130 mg/l, Arginine 56-930 mg/l, Asparagine 44-900 mg/l, Aspartic acid 26-445 mg/l, Cysteine 35-270 mg/l, Glutamic acid 44-900 mg/, Glutamine 44-900 mg/l, Glycine 18-180 mg/l, Histidine 42-670 mg/l, Isoleucine 54-877 mg/l, Leucine 59-1250 mg/l, Lysine 73-1120 mg/l, Methionine 9-454 mg/l, Phenylalanine 35-677 mg/l, Proline 17-828 mg/l, Serine 26-1339 mg/l, Threonine 24-989 mg/l, Tryptophane 9-441 mg/l, Tyrosine 55-565 mg/l, Valine 52-787 mg/l, NaHCO3 2,4 g/l. The basal medium further comprises fatty acids and nucleotides. In all batch and fed-batch experiments the same proprietary culture medium and proprietary feed medium were used, unless otherwise stated. The feed medium used in fed-batch experiments (in the following also termed “proprietary feed medium”) has all necessary substances for cell growth, cell viability and cellular productivity, in particular salts, trace elements, carbohydrates, amino acids, fatty acids, pH regulator, nucleotides. Even though here a rich feed medium is used containing above mentioned substances, feed media must not comprise all of these components. Feed media consisting of one or more of above mentioned substances are suitable also. Both basal medium and feed medium are serum free, protein free, peptone free and peptide free. […]

[4] = system: BHK (baby hamster kidney) cells; conditions: adherent growing BHK cells, serum containing medium; Brunton et al. 1991; cited from earlier work
[5] = system: CHO (Chinese hamster ovary) cells; conditions: 10 μM ferric iron plus spermine 0 to 100 μM, serum containing medium; Gaboriau et al. 2004; cited from earlier work
[6] = Example 8, FIG. 8, in the presence of spermine

NCCCCN [putrescine]
efficiency among amines in promoting cell specific productivity [1]: most efficient amine

[Fe+3] [ferric (Fe^3+) iron]
mitochondrial DNA damage (rat hepatoma cells): damaged

iron dextran
effect of high iron concentration on cell growth (CHO DG44 host cell line [2]; Example 9, FIG. 9, 40 mg/l spermine, iron dextran fed at day 6 to 250 mg/l): promotes cell growth

NCCCCNCCCN [spermidine]
cell concentration reached (CHO DG44 host cell line [3]; Example 2, FIG. 2, 100 mg/l iron (III) pyrophosphate hydrate, with versus without spermidine): higher concentration | toxicity of spermidine (CHO DG44 host cell line [3]; Example 2, FIG. 2, tested high concentrations, 100 mg/l iron (III) pyrophosphate hydrate): not visible

[Fe+2] [ferrous (Fe^2+)]
mitochondrial DNA damage (rat hepatoma cells): damaged

iron
need of iron for cell growth (CHO DG44 host cell line [2]; Example 1, FIG. 1): essential | effect of spermine and iron together on cell growth (CHO DG44 host cell line [2]): synergistic effect

O=C([O-])CC(O)(CC(=O)[O-])C(=O)[O-].[Fe+3] [iron (III) citrate]
requirement for optimal cell growth (CHO DG44 host cell line [2]): required

O.O.O.O.O.O.O.O.O.O=[N+]([O-])[O-].O=[N+]([O-])[O-].O=[N+]([O-])[O-].[Fe+3] [iron (III) nitrate nonahydrate]
effect of spermine and iron together on cell concentration (CHO DG44 host cell line [3]): synergistic effects

NCCCNCCCCNCCCN [spermine]
effect of spermine and iron together on cell concentration (CHO DG44 host cell line [3]): synergistic effects | cellular productivity on increasing concentration above 2 mg/l [1]: does not significantly increase | toxicity to cells [4]: toxic | number of viable cells [5]: decreases the number of viable cells in a dose-dependent manner | effect of spermine and iron together on cell growth (CHO DG44 host cell line [2]): synergistic effect | cell growth with increasing spermine concentration (CHO DG44 host cell line [2]; Example 3, FIG. 3, 100 mg/l iron (III) pyrophosphate hydrate in medium, 800 mg/l in feed): grow better | requirement for optimal cell growth (CHO DG44 host cell line [2]): required | effect of spermine on cell growth (CHO DG44 host cell line [2]; Example 7, FIG. 7, iron (III) citrate as iron source, feed 3200 mg/l iron (III) citrate): positive effect | effect of spermine on cell growth (CHO DG44 host cell line [2]; Example 8, FIG. 8, iron (III) phosphate as iron source, feed 800 mg/l iron (III) phosphate): positive effect

O=P([O-])([O-])[O-].[Fe+3] [iron (III) phosphate]
effect of high iron concentration on cell growth (CHO DG44 host cell line [2]; [6]): promotes cell growth | toxicity of high iron concentration to the cells (CHO DG44 host cell line [2]; [6]): not toxic
